Numbered stars: 1 amine (or outer) side, 2 acyl side, 3 side chain; on linkers, the order of the positions; unused ones are H or OH. Bridge positions count the residues as written; N and C are the ends. Square brackets hold non-standard residues; d marks the D form. Side chains are listed from the residue outwards. Peptide text beside a SMILES is read from it. * marks the point of attachment. C20 diacid = O=C(O)CCCCCCCCCCCCCCCCCCC(=O)*; γGlu = O=C(O)[C@H](CCC(=O)[*:2])N[*:1]; Hyp = O=C(O)[C@@H]1C[C@@H](O)CN1; Dab = NCC[C@H](N)C(=O)O; AEEA = NCCOCCOCC(=O)O

Consider five compounds from patent US20260166128A1, “HUMAN AMYLIN ANALOG, AND DERIVATIVE THEREOF AND USE THEREOF” (priority 2022, published 2026).

Data set [1] is described as follows: Freeze-thaw stability of derivatives (freeze-thaw yield by liquid chromatography). The format is physicochemical. To be noted: for Dissolution property: appearance after dissolution at 0.2 mg/ml in 20 mM phosphate buffer solution (PB) (pH 7.0); for Freeze storage property: appearance after overnight storage at −20° C. and thawing to room temperature, 0.2 mg/ml in 20 mM PB (pH 7.0); for Freeze storage yield: concentration of polypeptide after freezing and thawing / concentration before, by liquid chromatography, −20° C. overnight. An outline of the steps:
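Freeze-thaw yield is the ratio of peptide concentration after versus before one overnight −20° C freeze and room-temperature thaw, both quantified by RP-HPLC of supernatant after centrifugation. Samples were 0.2 mg/ml freeze-dried derivative in 20 mM PB, pH 7.0.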

For a further data set, the target named is T1, human amylin receptor (Homo sapiens, UniProt O60896+P30988).
T1 construct: host or cells: CHO-K1/Ga15/AMY3 cells, further stably transfected with a CRE-luciferase plasmid
T1 sequence (P30988 25-474): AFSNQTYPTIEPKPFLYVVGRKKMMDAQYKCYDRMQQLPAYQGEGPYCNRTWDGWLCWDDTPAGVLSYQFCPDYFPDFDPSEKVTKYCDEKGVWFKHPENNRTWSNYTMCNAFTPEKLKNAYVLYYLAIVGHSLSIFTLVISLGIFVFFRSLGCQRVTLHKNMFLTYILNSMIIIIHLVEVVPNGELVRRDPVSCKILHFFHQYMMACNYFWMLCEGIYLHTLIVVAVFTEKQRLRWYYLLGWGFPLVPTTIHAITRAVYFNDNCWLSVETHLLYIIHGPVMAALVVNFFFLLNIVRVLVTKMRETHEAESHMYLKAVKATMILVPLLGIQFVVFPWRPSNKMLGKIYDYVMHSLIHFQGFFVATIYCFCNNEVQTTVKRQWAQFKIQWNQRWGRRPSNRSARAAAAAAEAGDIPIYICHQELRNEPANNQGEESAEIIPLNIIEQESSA
T1 sequence (O60896 24-148 partner): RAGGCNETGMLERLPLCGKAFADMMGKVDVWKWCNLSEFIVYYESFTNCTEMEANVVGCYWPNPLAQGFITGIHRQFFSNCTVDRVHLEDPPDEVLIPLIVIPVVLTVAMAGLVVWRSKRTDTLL
The data set is described as follows: Luciferase assay of amylin derivatives in amylin receptor/CRE-luc CHO cell line. The settings on record: CHO-K1/Ga15/AMY3 CRE-luc cells, 24 hours incubation, F12 medium containing 10% FBS; read-out: EC50. Type of data set: cell-based.

Description for human amylin receptor: The experiment was intended to detect the activity or efficacy of the amylin derivatives on a human amylin receptor in vitro by luciferase assay.
50 μL of growth medium (F12 medium containing 10% FBS) was added into each well of a white 96-well plate, and the stably transfected amylin/CRE-lue CHO cells were inoculated into the white 96-well plate at a density of about 20,000 cells/well for activity determination.

On to `CC[C@H](C)[C@H](NC(=O)[C@@H]1CCCN1C(=O)CNC(=O)[C@H](CC(C)C)NC(=O)[C@H](CCCCNC(=O)COCCOCCNC(=O)COCCOCCNC(=O)CC[C@H](NC(=O)CCCCCCCCCCCCCCCCCCC(=O)O)C(=O)O)NC(=O)[C@H](CC(N)=O)NC(=O)[C@H](CO)NC(=O)[C@H](CO)NC(=O)[C@H](Cc1c[nH]cn1)NC(=O)[C@H](CCCNC(=N)N)NC(=O)[C@H](CC(C)C)NC(=O)[C@H](Cc1ccccc1)NC(=O)[C@H](CC(=O)O)NC(=O)[C@H](C)NC(=O)[C@H](CC(C)C)NC(=O)[C@H](CCCNC(=N)N)NC(=O)[C@H](CCC(N)=O)NC(=O)[C@@H](NC(=O)[C@H](C)NC(=O)[C@@H]1CSSC[C@H](NC(=O)[C@@H](N)CCCNC(=N)N)C(=O)N[C@@H](CC(N)=O)C(=O)N[C@@H]([C@@H](C)O)C(=O)N[C@@H](C)C(=O)N[C@@H]([C@@H](C)O)C(=O)N1)[C@@H](C)O)C(=O)N[C@@H](CC(C)C)C(=O)N1CCC[C@H]1C(=O)N1CCC[C@H]1C(=O)N[C@H](C(=O)N[C@@H](CC(N)=O)C(=O)N[C@H](C(=O)NCC(=O)N[C@@H](CO)C(=O)N[C@@H](CC(N)=O)C(=O)N[C@H](C(=O)N1C[C@H](O)C[C@H]1C(N)=O)[C@@H](C)O)C(C)C)[C@@H](C)O` [PD087] (H-RCNTATCATQRLADFLRHSSNK([AEEA-AEEA-γGlu-C20 diacid])LGPILPPTNVGSNT[Hyp]-NH2; disulfide 2-7 (inferred); N-terminus assumed), for which, in data set [1], the Dissolution property result is “Clear”, the Freeze storage property entry is on record as “Clear” and the Freeze storage yield is recorded as 102.65%. Further, the EC50 (as a rule, the concentration at which the effect is half-maximal) at human amylin receptor was found to be 0.032 nM.
For `CC[C@H](C)[C@H](NC(=O)[C@@H]1CCCN1C(=O)[C@H](CCCCNC(=O)CC[C@H](NC(=O)CCCCCCCCCCCCCCCCCCC(=O)O)C(=O)O)NC(=O)[C@H](CC(C)C)NC(=O)[C@H](CC(N)=O)NC(=O)[C@H](CC(N)=O)NC(=O)[C@H](CO)NC(=O)[C@H](CO)NC(=O)[C@H](Cc1c[nH]cn1)NC(=O)[C@H](CCCNC(=N)N)NC(=O)[C@H](CC(C)C)NC(=O)[C@H](Cc1ccccc1)NC(=O)[C@H](CCN)NC(=O)[C@H](C)NC(=O)[C@H](CC(C)C)NC(=O)[C@H](CCCNC(=N)N)NC(=O)[C@H](CCC(N)=O)NC(=O)[C@@H](NC(=O)[C@H](C)NC(=O)[C@@H]1CSSC[C@H](NC(=O)[C@@H](N)CCCNC(=N)N)C(=O)N[C@@H](CC(N)=O)C(=O)N[C@@H]([C@@H](C)O)C(=O)N[C@@H](C)C(=O)N[C@@H]([C@@H](C)O)C(=O)N1)[C@@H](C)O)C(=O)N[C@@H](CC(C)C)C(=O)N1CCC[C@H]1C(=O)N1CCC[C@H]1C(=O)N[C@H](C(=O)N[C@@H](CC(N)=O)C(=O)N[C@H](C(=O)NCC(=O)N[C@@H](CO)C(=O)N[C@@H](CC(N)=O)C(=O)N[C@H](C(=O)N1CCC[C@H]1C(N)=O)[C@@H](C)O)C(C)C)[C@@H](C)O` [PD044] (H-RCNTATCATQRLA[Dab]FLRHSSNNLK([γGlu-C20 diacid])PILPPTNVGSNTP-NH2; disulfide 2-7 (inferred)), in data set [1], the Dissolution property entry was “Clear”, the Freeze storage property entry is “Clear” and the Freeze storage yield was found to be 84.90%. Further, the EC50 on human amylin receptor was 2.62 nM.
On to `CC[C@H](C)[C@H](NC(=O)[C@@H]1CCCN1C(=O)CNC(=O)[C@H](CCCCNC(=O)CC[C@H](NC(=O)CCCCCCCCCCCCCCCCCCC(=O)O)C(=O)O)NC(=O)[C@H](CC(N)=O)NC(=O)[C@H](CC(N)=O)NC(=O)[C@H](CO)NC(=O)[C@H](CO)NC(=O)[C@H](Cc1c[nH]cn1)NC(=O)[C@H](CCCNC(=N)N)NC(=O)[C@H](CC(C)C)NC(=O)[C@H](Cc1ccccc1)NC(=O)[C@H](CCC(=O)O)NC(=O)[C@H](C)NC(=O)[C@H](CC(C)C)NC(=O)[C@H](CCCNC(=N)N)NC(=O)[C@H](CCC(N)=O)NC(=O)[C@@H](NC(=O)[C@H](C)NC(=O)[C@@H]1CSSC[C@H](NC(=O)[C@@H](N)CCCNC(=N)N)C(=O)N[C@@H](CC(N)=O)C(=O)N[C@@H]([C@@H](C)O)C(=O)N[C@@H](C)C(=O)N[C@@H]([C@@H](C)O)C(=O)N1)[C@@H](C)O)C(=O)N[C@@H](CC(C)C)C(=O)N1CCC[C@H]1C(=O)N1CCC[C@H]1C(=O)N[C@H](C(=O)N[C@@H](CC(N)=O)C(=O)N[C@H](C(=O)NCC(=O)N[C@@H](CO)C(=O)N[C@@H](CC(N)=O)C(=O)N[C@H](C(=O)N1CCC[C@H]1C(N)=O)[C@@H](C)O)C(C)C)[C@@H](C)O` [PD008] (H-RCNTATCATQRLAEFLRHSSNNK([γGlu-C20 diacid])GPILPPTNVGSNTP-NH2; disulfide 2-7 (inferred)), for which, in data set [1], the Dissolution property entry was “Clear” and the Freeze storage property entry was “Clear”. Besides, the 50% effective concentration (EC50) on human amylin receptor is 0.281 nM.
Take `CC[C@H](C)[C@H](NC(=O)[C@@H]1CCCN1C(=O)CNC(=O)[C@H](Cc1ccccc1)NC(=O)[C@H](CC(N)=O)NC(=O)[C@H](CC(N)=O)NC(=O)[C@H](CO)NC(=O)[C@H](CO)NC(=O)[C@H](Cc1c[nH]cn1)NC(=O)[C@H](CCCNC(=N)N)NC(=O)[C@H](CC(C)C)NC(=O)[C@H](Cc1ccccc1)NC(=O)[C@H](CCC(=O)O)NC(=O)[C@H](C)NC(=O)[C@H](CC(C)C)NC(=O)[C@H](CCCNC(=N)N)NC(=O)[C@H](CCC(N)=O)NC(=O)[C@@H](NC(=O)[C@H](C)NC(=O)[C@@H]1CSSC[C@H](NC(=O)[C@@H](N)CCCCNC(=O)CC[C@H](NC(=O)CCCCCCCCCCCCCCCCCCC(=O)O)C(=O)O)C(=O)N[C@@H](CC(N)=O)C(=O)N[C@@H]([C@@H](C)O)C(=O)N[C@@H](C)C(=O)N[C@@H]([C@@H](C)O)C(=O)N1)[C@@H](C)O)C(=O)N[C@@H](CC(C)C)C(=O)N1CCC[C@H]1C(=O)N1CCC[C@H]1C(=O)N[C@H](C(=O)N[C@@H](CC(N)=O)C(=O)N[C@H](C(=O)NCC(=O)N[C@@H](CO)C(=O)N[C@@H](CC(N)=O)C(=O)N[C@H](C(=O)N1CCC[C@H]1C(N)=O)[C@@H](C)O)C(C)C)[C@@H](C)O` [PD066]: in data set [1], the Dissolution property entry is “Clear”, the Freeze storage property entry is reported as “Clear” and the Freeze storage yield is 93.44%. Further, at human amylin receptor, the EC50 was 0.044 nM.
On to `CC[C@H](C)[C@H](NC(=O)[C@@H]1CCCN1C(=O)CNC(=O)[C@H](Cc1ccccc1)NC(=O)[C@H](CC(N)=O)NC(=O)[C@H](CC(N)=O)NC(=O)[C@H](CO)NC(=O)[C@H](CO)NC(=O)[C@H](Cc1c[nH]cn1)NC(=O)[C@H](CCCNC(=N)N)NC(=O)[C@H](CC(C)C)NC(=O)[C@H](Cc1ccccc1)NC(=O)[C@H](CC(=O)O)NC(=O)[C@H](C)NC(=O)[C@H](CC(C)C)NC(=O)[C@H](CCCNC(=N)N)NC(=O)[C@H](CCC(N)=O)NC(=O)[C@@H](NC(=O)[C@H](C)NC(=O)[C@@H]1CSSC[C@H](NC(=O)[C@H](CCCCN)NC(=O)CC[C@H](NC(=O)CCCCCCCCCCCCCCCCCCC(=O)O)C(=O)O)C(=O)N[C@@H](CC(N)=O)C(=O)N[C@@H]([C@@H](C)O)C(=O)N[C@@H](C)C(=O)N[C@@H]([C@@H](C)O)C(=O)N1)[C@@H](C)O)C(=O)N[C@@H](CC(C)C)C(=O)N1CCC[C@H]1C(=O)N1CCC[C@H]1C(=O)N[C@H](C(=O)N[C@@H](CC(N)=O)C(=O)N[C@H](C(=O)NCC(=O)N[C@@H](CO)C(=O)N[C@@H](CC(N)=O)C(=O)N[C@H](C(=O)N1C[C@H](O)C[C@H]1C(N)=O)[C@@H](C)O)C(C)C)[C@@H](C)O` [PD067] ({C20 diacid-γGlu}-KCNTATCATQRLADFLRHSSNNFGPILPPTNVGSNT[Hyp]-NH2; disulfide 2-7 (inferred)), for which, in data set [1], the Dissolution property entry is given as “Clear”, the Freeze storage property entry is on record as “Clear” and the Freeze storage yield stood at 98.84%. The EC50 on human amylin receptor stood at 0.034 nM.
